Consider one substance from US9828412B2, “Short peptide targeting EPS8 binding with EGFR and use thereof” (SOUTHERN MEDICAL UNIVERSITY, priority 2014, dated 2017).

Where two headings read alike, the source gives them in different places. No end group written: not given here.

Assay [1] deals with EPS8 overexpression tumor cell line KG1α (human acute myeloid leukemia cell line).
Procedure: EPS8 overexpression tumor cell line KG1α (human acute myeloid leukemia cell line, purchased from the American Type Culture Collection, ATCC) were selected as target cells, and seeded in 96-well plates at 10,000 cells/well and 100 μL/well. The medium culture was Roswell Park Memorial Institute (RPMI)-1640 containing 10% fetal bovine serum (FBS). […] Then OD values at the wavelength of 490 nm were detected by MTS assay, and KG1α cell viability was calculated.
KG1α cell viability=[(ODexperimental-ODblank control)]/[(ODnegative control-ODblank control)]×100%.
Assay [2] deals with EPS8 overexpression tumor cell line MCF-7 (human breast cancer cell line).
Procedure: EPS8 overexpression tumor cell line MCF-7 (human breast cancer cell line, purchased from ATCC) were selected as target cells, and seeded in 96-well plates at 10,000 cells/well and 100 μL/well. The medium culture was Dulbecco's Modified Eagle's Medium (DMEM) containing 10% FBS. 8 hours later, short peptide P01 was added at different final concentration of 0, 100, 300 and 500 μg/mL. MCF-7 cells were incubated with short peptide P01 for 24 hours, 48 hours and 72 hours. Then OD values at wavelength of 490 nm were detected by MTS assay, and MCF-7 cell viability was calculated.
MCF-7 cell viability=[(ODexperimental-ODblank control)]/[(ODnegative control-ODblank control)]×100%.

As to “RKKNKPPPPKK-NH2 [P01, N′-Arg-Lys-Lys-Asn-Lys-Pro-Pro-Pro-Pro-Lys-Lys-NH2-C′]”, the results for the “IC50 (KG1α cell viability)” value in assay [1] (24 h), in assay [1] (48 h) and in assay [1] (72 h) were 888.5 µg/mL, 413.9 µg/mL and 335.6 µg/mL, respectively. Further, the “IC50 (MCF-7 cell viability)” value in assay [2] (24 h) came out at 594.2 µg/mL; in assay [2] (48 h), 374.9 µg/mL; in assay [2] (72 h) it was 304.7 µg/mL.
